Data reported in patent publication US20240301499A1, “METHOD FOR IDENTIFYING HARD-TO-TREAT OSTEOSARCOMA PATIENTS AT DIAGNOSIS AND IMPROVING THEIR OUTCOME BY PROVIDING NEW THERAPY” (Institut Gustave Roussy, priority 2021, published 2024).
Like-named read-outs stand apart in the source and are kept apart here.

Experiments:
[1] = tested on: 7 human osteosarcoma lines; assay: MTS cell proliferation assay, 48 and 72 h (first Example 2); assay type: cell-based; conditions: MTS test
Experimental: HOS, 143B, MG-63, U2OS and IOR/OS18 cell lines were seeded at 5,000 cells per well, Saos-2, Saos-2-B and IOR/OS14 cell lines were seeded at 10,000 cells per well in a 96-well plate containing a final volume of 100 μl/well and left to settle overnight in DMEM with 10% fetal calf serum.
The cells were treated with different drugs (PPARγ agonists troglitazone (TGZ) or rosiglitazone (RGZ), or PPARγ antagonist T0070907, dissolved in DMSO) at concentrations ranging from 0 μmol/l to 100 μmol/L. The control (untreated cells) get the same volume of DMSO when the cells are treated (10 μl per 1 ml). Cell viability was determined 48 and 72 hours after exposure. Old medium was removed and a solution with MTS/new medium (20 μl of MTS solution−final concentration 0.33 mg/ml) (CellTiter 96 Aqueous One Solution Cell Proliferation Assay; Promega Corporation, Charbonnieres, France) was added. A set of wells were prepared only with MTS/new medium for background subtraction at the same time. An incubation from 1 to 7 hours at 37° C. (cell line metabolism dependent) was performed follow by a colorimetric measurement at 490 nm in an automatic plate reader (Elxb808; Fisher Bioblock Scientific SAS, Illkirch, France).

[2] = tested on: 8 osteosarcoma parental cell lines; assay: In vitro cell viability (MTS assay), 72 h; assay type: cell-based, human
Experimental: (§1) Parental HOS, 143B, MG-63, IOR/OS18, resistant derived HOS R/MTX and derived PPARγ shRNA or overexpressing PPARγ cell lines were seeded at 5000 cells/well, parental, Saos2, Saos-2B, IOR/OS14, resistant derived HOS R/DOXO and derived PPARγshRNA or overexpressing PPARγ lines were seeded at 10,000 cells/well in a 96-well plate in DMEM supplemented with 10% FBS for both assays.
(§2) The day after seeding, cells were incubated in the presence of a range of drug concentrations for 72 h (from 0 to 100 μmol/L for DOXO, MAF; 0 to 500 μmol/L for MTX, T0070907, Rosiglitazone (RGZ) and Troglitazone (TGZ)). Cell viability was evaluated using the CellTiter 96 Aqueous One Solution Cell Proliferation Assay (MTS assay) (Promega, Charbonnieres, France), according to the manufacturer instructions. The half-maximal inhibitory concentration (IC50) was determined using the GraphPad Prism5 software (Graphpad Software Inc., California, USA).

HOS cells [3] = assay: In vitro cell viability (MTS assay), HOS; assay type: cell-based, human
Experimental: as §1, §2

HOS cells [4] = assay: RNA sequencing of treated HOS cells; assay type: cell-based, human; conditions: T0070907 at 25 μM for 24 h
MAP-217 PT PDX model = assay: Osteosarcoma orthotopic (paratibial) PDX model MAP-217; assay type: in vivo, NSG mice; conditions: IP 10 mg/kg/injection daily
Description: Experiments were validated by the CEEA26, Ethic committee (approval number APAFIS #27183-2020091414229028 v3) and carried out under conditions established by the European Community (Directive 2010/63/UE). Animals were purchased at Gustave Roussy (Villejuif, France) and maintained in the respective animal facilities following standard animal regulation, health and care, and ethical controls. Osteosarcoma PDXs were established from relapsed patients by transplantation in immunocompromised NSG mice and considered as established when tumor growth was sustained after at least two in vivo passages. […] Clinical status, tumor uptake and tumor growth will be evaluated one to 3 times a week. Paratibial tumor was detected by palpation and tumor gross appearance (caliper measurements). […] Mice were then anesthetized and bone structure alterations were analyzed by CTscan imaging. […]
Groups of 8 animals bearing the same OTS orthotopic PDX model were treated from day 14 after tumor implantation with intraperitoneal (IP) injection (volume of 10 m/kg) every day with either T0070907 (10 mg/Kg/injection) or with vehicle (saline, control group). […] Clinical status, tumor uptake and tumor growth were evaluated each two days. Paratibial tumors were detected by palpation, tumor gross apparition (caliper measurements). […]

IC50 ([1]; read-out: IC50 (cell viability), range over cell lines): 9 to 18 µM | IC50 ([1]; read-out: median IC50 (cell viability)): 20 µM
SMILES: O=C(Nc1ccncc1)c1cc([N+](=O)[O-])ccc1Cl [T0070907]
IC50 ([2]; 8 osteosarcoma parental cell lines, read-out: IC50, range over cell lines): 9.3 to 37.4 µM | IC50 ([2]; all 8 osteosarcoma parental cell lines, read-out: Median IC50): 20 µM | IC50 (HOS cells [3]): 25 µM | RNA sequencing: transcription programs induced (HOS cells [4]): induction of pro-apoptotic and osteoblastic differentiation programs | delay to reach 2.5 time the initial leg volume, higher compared to control (MAP-217 PT PDX model): 20% | lung metastases (MAP-217 PT PDX model; IHC human Ki67 at sacrifice): decreased lung metastases in number and size
